# In paper PMC9977718, “A photoswitchable inhibitor of TREK channels controls pain in wild-type intact freely moving animals” (Nature Communications, 2023):
# Target: T1, TRESK (Mus musculus, UniProt Q6VV64)
# T1 construct: gene Kcnk18
# T1 sequence (Q6VV64 1-394): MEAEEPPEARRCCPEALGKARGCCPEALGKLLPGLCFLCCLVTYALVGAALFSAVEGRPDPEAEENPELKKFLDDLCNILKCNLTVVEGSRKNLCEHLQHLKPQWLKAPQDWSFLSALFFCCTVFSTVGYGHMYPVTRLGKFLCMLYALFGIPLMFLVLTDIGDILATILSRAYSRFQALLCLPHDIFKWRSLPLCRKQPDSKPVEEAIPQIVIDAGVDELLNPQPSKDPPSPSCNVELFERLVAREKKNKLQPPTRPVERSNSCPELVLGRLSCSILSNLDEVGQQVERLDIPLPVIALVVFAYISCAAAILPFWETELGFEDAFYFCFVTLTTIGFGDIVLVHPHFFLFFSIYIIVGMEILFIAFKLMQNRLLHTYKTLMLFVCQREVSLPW
# Experiment: whole-cell patch clamp, photoblock of mouse versus human channel
# Assay type: cell-based
structure (smiles),measurement,value
COc1ccccc1C(=O)Nc1cccc(N=Nc2cccc(C)c2)c1 [LAKI],"whole-cell patch clamp, photoblock of mouse versus human channel",LAKI photoblock is conserved among species since TRESK and TRAAK channel inhibitions are similar in mouse and human
